Data taken from ChEMBL document CHEMBL1122139, “Importance of the aromatic ring in adrenergic amines. 7. Comparison of the stereoselectivity of norepinephrine N-methyltransferase for aromatic vs. nonaromatic substrates and inhibitors” (J Med Chem, 1982).
Where “and” joins values, the source holds several entries; their conditions need not be identical. Equal entries are not always repeated.

B1: Phenylethanolamine N-methyltransferase (Bos taurus), P10938 (protein)
chain: MSGTDRSQAAGAVPDSDPGLAAVSSAYQRFEPRAYLRNNYAPPRGDLSCPDGVGPWKLRCLAQTFATGEVSGRTLIDIGSGPTIYQLLSACAHFEDITMTDFLEVNRQELRLWLREEPGAFDWSVYSQHVCLIEGKGESWQEKECQLRARVKRILPIDVHRPQPLGAGGLAPLPADALVSAFCLEAVSPDLASFQRALDHITTLLRPGGHLLLIGALEESWYLAGEARLAVVPVREEEVREALVRTATRCGICARTPMPAHLQTGVDDVKGIFFTRAQKKVGV

Experiments:
[1] = biological target: T1, Phenylethanolamine N-methyltransferase (Bos taurus, UniProt P10938); assay: (§1) Inhibitory activity against Norepinephrine N-methyl-transferase of bovine adrenal glands; assay type: tissue-based, Adrenal gland
T1 sequence (P10938 whole entry): B1 chain

[2] = Vmax value was calculated in terms of nmoles of product per mg of protein per minute
[3] = Vmax/Km x100 value of the compound
[4] = compound: NCC(O)C1CCCCCCC1; assay: as §1; assay type: tissue-based; details: Adrenal gland
[5] = compound: NC[C@@H](O)C1CCCCC1; assay: as §1; assay type: tissue-based; details: Adrenal gland
[6] = compound: NC[C@@H](O)C1CCCCCCC1; assay: as §1; assay type: tissue-based; details: Adrenal gland
[7] = compound: NC[C@@H](O)c1ccccc1; assay: as §1; assay type: tissue-based; details: Adrenal gland
[8] = compound: NC[C@H](O)C1CCCCC1; assay: as §1; assay type: tissue-based; details: Adrenal gland
[9] = compound: NC[C@H](O)C1CCCCCCC1; assay: as §1; assay type: tissue-based; details: Adrenal gland
[10] = compound: NC[C@H](O)c1ccccc1; assay: as §1; assay type: tissue-based; details: Adrenal gland

Molecule | Ki [1] | Vmax [2] | Vmax/Km x100 [3] | also measured
CC(N)CC1CCCCCCC1 (configuration not stated) | 86 µM | – | – | –
C[C@H](N)CC1CCCCCCC1 | 34 µM | – | – | –
C[C@H](N)c1ccccc1 | 149 µM | – | – | –
C[C@@H](N)c1ccccc1 | 1680 µM | – | – | –
NC[C@@H](O)c1ccccc1 (stereo in doubt; 9b) | – | 0.92 nmol/min/mg | 0.93 | –
C[C@@H](N)C1CCCCC1 | 412 µM | – | – | –
C[C@H](N)Cc1ccccc1 (stereo in doubt; 1b) [DEXTROAMPHETAMINE] | 422 µM | – | – | –
CC(N)CC1CCCCC1 (configuration not stated) | 109 µM | – | – | –
NC[C@H](O)c1ccccc1 | – | 4.85 nmol/min/mg | 1.69 | –
C[C@H](N)Cc1ccccc1 (stereo in doubt; 1c) [DEXTROAMPHETAMINE] | 1380 µM | – | – | –
CC(N)c1ccccc1 (configuration not stated) | 460 µM | – | – | –
NC[C@H](O)C1CCCCC1 | – | 1.85 nmol/min/mg | 2.43 | –
C[C@H](N)C1CCCCC1 | 44 µM | – | – | –
NC[C@H](O)C1CCCCCCC1 | – | 0.38 nmol/min/mg | 0.88 | –
NC[C@@H](O)c1ccccc1 (stereo in doubt; 9a) | – | 1.75 nmol/min/mg | 1.62 | –
NCCc1ccccc1 [PHENETHYLAMINE] | 467 µM | – | – | –
C[C@@H](N)CC1CCCCC1 | 290 µM | – | – | –
CC(N)CC1CC=CCC1 (configuration not stated) | 110 µM | – | – | –
C[C@@H](N)CC1CCCCCCC1 | 157 µM | – | – | –
CC(N)Cc1ccccc1 (configuration not stated) [AMPHETAMINE] | 740 µM | – | – | –
NCC(O)C1CCCCCCC1 (configuration not stated) | – | 0.27 nmol/min/mg | 0.62 | –
NCCC1CCCCC1 | 41 µM | – | – | –
NC[C@@H](O)C1CCCCC1 | – | 0.64 nmol/min/mg | 1.88 | –
NCC(O)C1CCCCC1 (configuration not stated) | – | 0.99 nmol/min/mg | 2.47 | –
C[C@H](N)CC1CCCCC1 | 22 µM | – | – | –
NC[C@@H](O)C1CCCCCCC1 | – | 0.27 nmol/min/mg | 0.67 | –
B1 | – | – | – | Km [4]: 43 µM; Km [5]: 34 µM; Km [6]: 40 µM; Km [7]: 96 µM and 108 µM; Km [8]: 76 µM; Km [9]: 43 µM; Km [10]: 286 µM
